Reference: patent US10597388B2, “Pyridazinone herbicides” (FMC CORPORATION, priority 2014, dated 2020)

Assays:
Test in all cases: Test D controlled growth environment herbicide test, pre- and postemergence
Format in all cases: in vivo
[1] = system: wheat, winter (winter wheat, Triticum aestivum)
Method in brief: (§1)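 Rating is visual, 0–100 scale (100 = complete control), made against untreated plants 14–21 d after treatment in controlled growth conditions. Postemergence sprays went onto 1- to 4-leaf plants in peat medium; preemergence sprays onto silt loam after sowing; formulation included a surfactant.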

[2] = system: oat, wild (wild oat, Avena fatua)
Method in brief: as §1

[3] = system: chamomile (scentless chamomile, Matricaria inodora)
Method in brief: as §1

[4] = system: Russian thistle (Salsola kali)
Method in brief: as §1

kochia (Kochia scoparia) = system: kochia (Kochia scoparia)
Method in brief: as §1

[5] = system: mustard, wild (wild mustard, Sinapis arvensis)
Method in brief: as §1

[6] = system: field violet (Viola arvensis)
Method in brief: as §1

[7] = system: speedwell (bird's-eye speedwell, Veronica persica)
Method in brief: as §1

[8] = system: chickweed (common chickweed, Stellaria media)
Method in brief: as §1

[9] = system: radish, wild (wild radish, Raphanus raphanistrum)
Method in brief: as §1

[10] = system: oilseed rape (Brassica napus)
Method in brief: as §1

[11] = system: field poppy (Papaver rhoeas)
Method in brief: as §1

[12] = system: deadnettle (henbit deadnettle, Lamium amplexicaule)
Method in brief: as §1

[13] = system: barley, spring (spring barley, Hordeum vulgare)
Method in brief: as §1

[14] = Postemergence, 31 g ai/ha, scale 0 to 100 (0 no effect, 100 complete control)
[15] = Postemergence, 125 g ai/ha, visual rating on scale 0 (no effect) to 100 (complete control), 14 to 21 d
[16] = Postemergence, 250 g ai/ha, scale 0 to 100 (0 no effect, 100 complete control)
[17] = Preemergence, 62 g ai/ha, scale 0 to 100 (0 no effect, 100 complete control)
[18] = Preemergence, 125 g ai/ha, scale 0 to 100 (0 no effect, 100 complete control)
[19] = Preemergence, 250 g ai/ha, scale 0 to 100, 0 no effect, 100 complete control
[20] = postemergence, 62 g ai/ha, scale 0 to 100, 0 no effect, 100 complete control

Cc1ccc2sc(C)c(-c3c(OC(=O)OC(C)C)c(C)nn(C)c3=O)c2c1 [Compound 66]
Wheat, Winter plant response rating [1, 14]: 0
Plant response rating, Wheat, Winter [1, 15]: 0
Plant response rating, Wheat, Winter [1, 16]: 0
Plant response rating (scale of 0 to 100), Wheat, Winter ([1]; Preemergence, 31 g ai/ha): 0
Plant response rating, Wheat, Winter [1, 17]: 0
Plant response rating, Wheat, Winter [1, 18]: 0
Plant response rating, Wheat, Winter [1, 19]: 0
Plant response rating, Wheat, Winter [1, 20]: 0
Oat, Wild plant response rating [2, 14]: 85
Plant response rating, Oat, Wild [2, 15]: 100
Plant response rating, Oat, Wild [2, 16]: 100
Plant response rating (scale of 0 to 100), Oat, Wild ([2]; Preemergence, 31 g ai/ha): 75
Plant response rating, Oat, Wild [2, 17]: 85
Plant response rating, Oat, Wild [2, 18]: 85
Plant response rating, Oat, Wild [2, 19]: 90
Plant response rating, Oat, Wild [2, 20]: 95
Chamomile plant response rating [3, 14]: 85
Plant response rating, Chamomile [3, 15]: 100
Plant response rating, Chamomile [3, 16]: 100
Plant response rating (scale of 0 to 100), Chamomile ([3]; Preemergence, 31 g ai/ha): 90
Plant response rating, Chamomile [3, 17]: 100
Plant response rating, Chamomile [3, 18]: 100
Plant response rating, Chamomile [3, 19]: 100
Plant response rating, Chamomile [3, 20]: 90
Russian Thistle plant response rating [4, 14]: 75
Plant response rating, Russian Thistle [4, 15]: 75
Plant response rating, Russian Thistle [4, 16]: 80
Plant response rating (scale of 0 to 100), Russian Thistle ([4]; Preemergence, 31 g ai/ha): 0
Plant response rating, Russian Thistle [4, 17]: 20
Plant response rating, Russian Thistle [4, 18]: 60
Plant response rating, Russian Thistle [4, 19]: 90
Plant response rating, Russian Thistle [4, 20]: 80
Kochia plant response rating (kochia (Kochia scoparia); [14]): 85
Plant response rating, Kochia (kochia (Kochia scoparia); [15]): 100
Plant response rating, Kochia (kochia (Kochia scoparia); [16]): 100
Plant response rating (scale of 0 to 100), Kochia (kochia (Kochia scoparia); Preemergence, 31 g ai/ha): 0
Plant response rating, Kochia (kochia (Kochia scoparia); [17]): 15
Plant response rating, Kochia (kochia (Kochia scoparia); [18]): 75
Plant response rating, Kochia (kochia (Kochia scoparia); [19]): 85
Plant response rating, Kochia (kochia (Kochia scoparia); [20]): 95
Mustard, Wild plant response rating [5, 14]: 10
Plant response rating, Mustard, Wild [5, 15]: 55
Plant response rating, Mustard, Wild [5, 16]: 70
Plant response rating (scale of 0 to 100), Mustard, Wild ([5]; Preemergence, 31 g ai/ha): 0
Plant response rating, Mustard, Wild [5, 17]: 0
Plant response rating, Mustard, Wild [5, 18]: 0
Plant response rating, Mustard, Wild [5, 19]: 0
Plant response rating, Mustard, Wild [5, 20]: 40
Field Violet plant response rating [6, 14]: 85
Plant response rating, Field Violet [6, 15]: 95
Plant response rating, Field Violet [6, 16]: 95
Plant response rating (scale of 0 to 100), Field Violet ([6]; Preemergence, 31 g ai/ha): 60
Plant response rating, Field Violet [6, 17]: 85
Plant response rating, Field Violet [6, 18]: 95
Plant response rating, Field Violet [6, 19]: 98
Plant response rating, Field Violet [6, 20]: 95
Speedwell plant response rating [7, 14]: 55
Plant response rating, Speedwell [7, 15]: 70
Plant response rating, Speedwell [7, 16]: 75
Plant response rating (scale of 0 to 100), Speedwell ([7]; Preemergence, 31 g ai/ha): 75
Plant response rating, Speedwell [7, 17]: 100
Plant response rating, Speedwell [7, 18]: 100
Plant response rating, Speedwell [7, 19]: 100
Plant response rating, Speedwell [7, 20]: 70
Chickweed plant response rating [8, 14]: 75
Plant response rating, Chickweed [8, 15]: 100
Plant response rating, Chickweed [8, 16]: 100
Plant response rating (scale of 0 to 100), Chickweed ([8]; Preemergence, 31 g ai/ha): 90
Plant response rating, Chickweed [8, 17]: 100
Plant response rating, Chickweed [8, 18]: 100
Plant response rating, Chickweed [8, 19]: 100
Plant response rating, Chickweed [8, 20]: 85
Radish, Wild plant response rating [9, 14]: 5
Plant response rating, Radish, Wild [9, 15]: 30
Plant response rating, Radish, Wild [9, 16]: 45
Plant response rating (scale of 0 to 100), Radish, Wild ([9]; Preemergence, 31 g ai/ha): 30
Plant response rating, Radish, Wild [9, 17]: 70
Plant response rating, Radish, Wild [9, 18]: 75
Plant response rating, Radish, Wild [9, 19]: 70
Plant response rating, Radish, Wild [9, 20]: 25
Oilseed Rape plant response rating [10, 14]: 0
Plant response rating, Oilseed Rape [10, 15]: 65
Plant response rating, Oilseed Rape [10, 16]: 75
Plant response rating (scale of 0 to 100), Oilseed Rape ([10]; Preemergence, 31 g ai/ha): 35
Plant response rating, Oilseed Rape [10, 17]: 35
Plant response rating, Oilseed Rape [10, 18]: 35
Plant response rating, Oilseed Rape [10, 19]: 35
Plant response rating, Oilseed Rape [10, 20]: 20
Field Poppy plant response rating [11, 14]: 70
Plant response rating, Field Poppy [11, 15]: 95
Plant response rating, Field Poppy [11, 16]: 95
Plant response rating (scale of 0 to 100), Field Poppy ([11]; Preemergence, 31 g ai/ha): 100
Plant response rating, Field Poppy [11, 17]: 100
Plant response rating, Field Poppy [11, 18]: 100
Plant response rating, Field Poppy [11, 19]: 100
Plant response rating, Field Poppy [11, 20]: 85
Deadnettle plant response rating [12, 14]: 15
Plant response rating, Deadnettle [12, 15]: 35
Plant response rating, Deadnettle [12, 16]: 40
Plant response rating (scale of 0 to 100), Deadnettle ([12]; Preemergence, 31 g ai/ha): 15
Plant response rating, Deadnettle [12, 17]: 40
Plant response rating, Deadnettle [12, 18]: 55
Plant response rating, Deadnettle [12, 19]: 55
Plant response rating, Deadnettle [12, 20]: 15
Barley, Spring plant response rating [13, 14]: 0
Plant response rating, Barley, Spring [13, 15]: 5
Plant response rating, Barley, Spring [13, 16]: 15
Plant response rating (scale of 0 to 100), Barley, Spring ([13]; Preemergence, 31 g ai/ha): 0
Plant response rating, Barley, Spring [13, 17]: 0
Plant response rating, Barley, Spring [13, 19]: 10
Plant response rating, Barley, Spring [13, 20]: 0
